Patent US9233127B2, “Compositions and methods for CXCR4 signaling and umbilical cord blood stem cell engraftment” (University of Virginia Patent Foundation, priority 2012, dated 2016)
“Also recorded” adds a separate entry of the source.

Key:
[1] = tested on: UCB T-cells; test: Cytoplasmic IFN-γ and NFAT1 expression in UCB T-cells during mitogen stimulation; format: cell-based, human; details: for percentages of IFN-γ-expressing UCB T-cells: exogenous cytokine added during mitogen stimulation, IFN-γ 100 or 1,000 U/ml, 24 h
Description: To further test expression and regulation, exogenous IFN-γ was added (100 or 1,000 U/ml) during mitogen stimulation and cytoplasmic IFN-γ expression in UCB T-cells was measured.

[2] = tested on: NFAT1; test: NFAT1 protein and miR-184 in UCB CD4 T-cells stimulated with αCD3/CD28 plus exogenous IFN-γ; format: cell-based, human; details: for NFAT1 protein expression: CD3/28 stimulation 24 h, absence of monocytes, 1000 U/ml
Description: FIG. 22A-B—Rescue of NFAT1 protein in UCB CD4 T-cells during primary stimulation in the presence of exogenous IFN-γ. UCB CD4 T-cells were stimulated with αCD3/CD28 for 24 h with 1000 U/ml of exogenous rh-IFN-γ. Cell lysates were harvested and Western Blot was probed for NFAT1 and β-actin.

[3] = tested on: murine BMNCs and CFU-GM progenitor cells; test: Migration of murine BMNCs and CFU-GM progenitors to SDF-1 gradient after cationic peptide priming; format: cell-based
Description: FIG. 8A-B—A) BM mononuclear cell and B) CFU-GM migration in response to an SDF-1 gradient after priming with LL-37 or hBD-2. Values are fold increases of migrated cells compared to media alone.
FIG. 17A-B—Cationic peptides released from granulocytes enhance responsiveness of HSPCs to SDF-1 gradient. […] Values are the fold increases of migrated cells compared to media alone. M, media alone; SDF-1 (L), 50 ng/ml; SDF-1 (H), 300 ng/ml; C3a, 1 μg/ml. * P<0.05 as compared with SDF-1 (50 ng/ml) alone. The data shown represent the combine results from four independent experiments carried out in triplicate per group (n=12).
We also evaluated the effect of complement fragment 5a (C5a). […] After leaving the BM, granulocytes undergo degranulation in response to plasma C5a and secrete cationic peptides, such as cathelicidin (LL-37) and β-defensin-2 (hBD-2). […] It was hypothesized that this response may be affected by the distribution of membrane lipids by cationic peptides. […] Direct confocal analysis of CXCR4 and lipid raft colocalization in the presence or absence of cationic peptides confirmed these findings.

[4] = tested on: CD34+ cells; test: Transwell chemotaxis of CD34+ cells to an SDF-1 gradient (priming); format: cell-based, human
Description: (§1) FIG. 11A-B—Effect of SLP and its components on chemotaxis of CD34^+ cells. Panel A: Chemotaxis of BM CD34^+ cells towards medium alone (control), SDF-1 low (10 ng/mL) alone, SLP (combined SLP from three patients), SDF-1 low+SLP, and SDF-1 high (300 ng/mL). Data are pooled from quadruplicate samples from three independent experiments. *p<0.00001. Panel B: Chemotaxis of UCB CD34^+ cells to medium alone (control), SDF-1 low (10 ng/mL) alone and SDF-1 low (10 ng/mL)+uPAR (1 μg/mL) or +ICAM (1 μg/mL) or +VCAM (1 μg/mL) or +FN (2 μg/mL), or +FG (4 μg/mL) or +C3a (1 μg/mL). Data are pooled from quadruplicate samples from three independent experiments. * p<0.00001.
Chemotaxis of CD34^+ cells to medium alone (control), C3a (1 μg/ml), C3adesArg (1 μg/ml), SDF-1 low (10 ng/mL) alone, and SDF-1 low (10 ng/mL)+C3a low (0.1 μg/ml) or SDF-1 low (10 ng/mL)+C3a (1 μg/ml) or SDF-1 low (10 ng/mL)+C3adesArg (1 μg/ml). Data are pooled from quadruplicate samples from three independent experiments.* p<0.00001.
FIG. 13A-B—Chemotaxis of cells to an SDF-1 gradient is lipid raft-dependent. Panel A: Chemotaxis of CD34^+ cells to medium alone (control), SDF-1 (300 ng/mL) and SDF-1 (300 ng/mL) after preincubation for 1 hr with Amphotericin (10 μg/mL) or Nystatin (50 μg/mL). Cells were collected after chemotaxis from the lower chambers and plated in a clonogenic assay. The number of CFU-GM and BFU-E colonies formed by harvested cells is shown as a percentage of control values. Data are pooled from quadruplicate samples from three independent experiments. *p<0.0001. Panel B: Chemotaxis of CD34^+ cells towards medium alone (control), SDF-1 low (10 ng/mL) alone, or SDF-1 low with cells exposed to C3a (1 μg/mL). Cells pretreated before chemotaxis for 1 hr with MβCD (2.5 mM) are shown as gray bars. Data are pooled from quadruplicate samples from three independent experiments. * p<0.00001.
HSPCs from the mPB engraft faster compared to HSPCs aspirated from BM. To test the hypothesis that mPB-derived HSPCs are primed in their responses to SDF-1 by molecules present in SLP, we pooled together SLP from three patients and exposed BM or UCB CD34^+ cells to the SLP during chemotaxis to a low (10 ng/mL) dose of SDF-1.
To address this issue further, the formation of rafts in the cells was perturbed by MβCD, which depletes cholesterol from the cell membrane. The CD34^+ cells were pre-incubated with MβCD for 1 hr. Chemotaxis to a low dose of SDF-1 in the presence of C3a (in the upper chambers) was evaluated.

[5] = tested on: UCB CD34+ cells; test: Transwell chemotaxis of UCB CD34+ cells to SDF-1 (priming); format: cell-based, human; details: for chemotactic response of UCB CD34+ cells to SDF-1: added to lower chambers with SDF-1 10 ng/mL, uPAR, ICAM, VCAM, C3a 1 μg/mL, FN 2 μg/mL, FG 4 μg/mL; for induction of chemotaxis of HSPCs when used alone: without SDF-1
Description: as §1
An increased migration of UCB-derived CD34^+ cells, as compared to BM and mPB CD34^+ cells was reported in transwell migration assays was previously reported. However, we noticed large inter-individual differences in the in vitro migratory ability of UCB CD34^+ cells, ranging from 1.1% to 14.3% for spontaneous migration and 3.1% to 62.3% for SDF-1-induced (300 ng/mL) migration. The lower migratory capacity in vitro of UCB-derived CD34^+ cells was not due to lower expression of CXCR4, but likely reflects the decreased migratory behavior of these cells. […] Based on this, we postulate that UCB HSPC responsiveness to an SDF-1 gradient varies with each collected UCB unit and that, in cases when responsiveness is low, UCB HSPCs should be identified and primed before infusion.
Moreover, as SLP contains several components that potentially could prime the responses of CD34^+ cells, (Example 2, FIG. 11, panel B) the most important being PMV and activated complement proteins such as anaphylatoxin C3a, soluble VCAM-1, soluble ICAM-1, uPAR, FG, and FN, we evaluated whether these factors could induce the chemotaxis of HSPCs when used alone. […] We also examined whether FG, FN, soluble VCAM-1, soluble ICAM-1, uPAR, and C3a prime HSPCs in their responses to SDF-1. […] To determine whether this also affects UCB CD34^+ clonogenic progenitors, UCB CD34^+ cells were collected from the lower chambers after the chemotaxis assay and plated in methylcellulose cultures. […] Moreover, a similar effect for the established hematopoietic cell lines Molt 4, Nalm-6, and THP-1 was also found (data not shown).

[6] = tested on: CXCR4; test: Western blot of CXCR4 in lipid raft membrane fractions of THP-1 cells; format: cell-based, human
Description: FIG. 15A-B—Western blot analysis of the colocalization of CXCR4 in fractions of cell membranes enriched in lipid rafts (fractions 3-5) and depleted of lipid rafts (fractions 9-11). Panel A: Hematopoietic THP-1 cells were stimulated by C3a (1 μg/mL) or desArgC3a (1 μg/mL) or not stimulated (control). CXCR4 was detected in these membrane fractions by Western blot along with ganglioside GM1, a marker of lipid rafts. Experiments were performed three times with similar results. Panel B: In control experiments, cells were pretreated for 1 hr with 10 mM MβCD. A representative study is shown.
Furthermore, direct evidence of the effect of priming agents on CXCR4 incorporation into membrane lipid rafts was obtained from Western blot analysis of CXCR4 expression in various fractions of cell membranes isolated according to their lipid raft content (Example 2, FIG. 15A-B). […] The role of C3a in incorporation of CXCR4 into membrane lipid rafts in UCB cells and involvement of other signaling molecules to this phenomenon will be evaluated in Aim 1.

IFN-γ: exogenous rh-IFN-γ
percentages of IFN-γ-expressing UCB T-cells [1]: nearly increased to that measured in adult T-cells | NFAT1 expression and concomitant IFN-γ expression ([1]; mitogen (ConA) stimulation plus exogenous IFN-γ): strong increases | IFN-γ expression ([1]; treatment with IFN-γ alone): did not stimulate IFN-γ expression | NFAT1 expression ([1]; treatment with IFN-γ alone): only slightly increased | miR-184 expression (qRT-PCR) ([2]; CD3/28 primary stimulation): marked decrease; also recorded: observed to decrease | NFAT1 protein expression [2]: increases in NFAT1 protein expression | NFAT1 protein expression ([2]; listed as rh-IFN-γ): noted to increase

MIP-3alpha: agonist of a membrane receptor that may bind the cationic peptides [reference compound]
responsiveness of hematopoietic progenitors to plasma SDF-1 (priming effect) [3]: did not show similar priming effects

TNF-α
percentages of IFN-γ-expressing UCB T-cells [1]: did not result in up-regulation

desArgC3a: fragment of C3a where the end arginine residue is cleaved; 76 residues; SEQ ID NO:2
chemotaxis of human CD34+ cells to low-threshold doses of SDF-1 ([4]; SDF-1 low 10 ng/mL, C3a or C3adesArg 1 μg/ml): potentiate (prime) chemotaxis | chemoattraction of CD34+ cells by the C3 cleavage fragment on its own ([4]; no SDF-1, 1 μg/ml): neither C3 cleavage fragments chemoattract | responsiveness of UCB cells to SDF-1 gradient ([5]; UCB-derived CD34+ cells exposed/primed): significantly increase the responsiveness | incorporation of Rac-1 into membrane lipid rafts [6]: increased the incorporation of Rac-1 | incorporation of CXCR4 into GM1-enriched membrane lipid rafts (fractions 3-5) ([6]; 1 μg/mL): stimulates incorporation of CXCR4

B1: soluble VCAM-1: soluble VCAM-1, component of SLP (protein, UniProt P19320 25-698, looked up)
extracellular domain: FKIETTPESRYLAQIGDSVSLTCSTTGCESPFFSWRTQIDSPLNGKVTNEGTTSTLTMNPVSFGNEHSYLCTATCESRKLEKGIQVEIYSFPKDPEIHLSGPLEAGKPITVKCSVADVYPFDRLEIDLLKGDHLMKSQEFLEDADRKSLETKSLEVTFTPVIEDIGKVLVCRAKLHIDEMDSVPTVRQAVKELQVYISPKNTVISVNPSTKLQEGGSVTMTCSSEGLPAPEIFWSKKLDNGNLQHLSGNATLTLIAMRMEDSGIYVCEGVNLIGKNRKEVELIVQEKPFTVEISPGPRIAAQIGDSVMLTCSVMGCESPSFSWRTQIDSPLSGKVRSEGTNSTLTLSPVSFENEHSYLCTVTCGHKKLEKGIQVELYSFPRDPEIEMSGGLVNGSSVTVSCKVPSVYPLDRLEIELLKGETILENIEFLEDTDMKSLENKSLEMTFIPTIEDTGKALVCQAKLHIDDMEFEPKQRQSTQTLYVNVAPRDTTVLVSPSSILEEGSSVNMTCLSQGFPAPKILWSRQLPNGELQPLSENATLTLISTKMEDSGVYLCEGINQAGRSRKEVELIIQVTPKDIKLTAFPSESVKEGDTVIISCTCGNVPETWIILKKKAETGDTVLKSIDGAYTIRKAQLKDAGVYECESKNKVGSQLRSLTLDVQGRENNKDYFSPE
modifications: extracellular domain
notes: soluble VCAM-1, component of SLP
chemotactic response of UCB CD34+ cells to SDF-1 [5]: increased the chemotactic response | induction of chemotaxis of HSPCs when used alone [5]: no evidence that they did

B2: soluble ICAM-1: soluble ICAM-1, component of SLP (protein, UniProt P05362 28-480, looked up)
extracellular domain: QTSVSPSKVILPRGGSVLVTCSTSCDQPKLLGIETPLPKKELLLPGNNRKVYELSNVQEDSQPMCYSNCPDGQSTAKTFLTVYWTPERVELAPLPSWQPVGKNLTLRCQVEGGAPRANLTVVLLRGEKELKREPAVGEPAEVTTTVLVRRDHHGANFSCRTELDLRPQGLELFENTSAPYQLQTFVLPATPPQLVSPRVLEVDTQGTVVCSLDGLFPVSEAQVHLALGDQRLNPTVTYGNDSFSAKASVSVTAEDEGTQRLTCAVILGNQSQETLQTVTIYSFPAPNVILTKPEVSEGTEVTVKCEAHPRAKVTLNGVPAQPLGPRAQLLLKATPEDNGRSFSCSATLEVAGQLIHKNQTRELRVLYGPRLDERDCPGNWTWPENSQQTPMCQAWGNPLPELKCLKDGTFPLPIGESVTVTRDLEGTYLCRARSTQGEVTRKVTVNVLSPRYE
modifications: extracellular domain
notes: soluble ICAM-1, component of SLP
chemotactic response of UCB CD34+ cells to SDF-1 [5]: increased the chemotactic response | induction of chemotaxis of HSPCs when used alone [5]: no evidence that they did
